The text below walks through data of patent US9334264B2, “NAMPT inhibitors” (AbbVie Inc., priority 2012, dated 2016).

Experiment [1] concerns the target NAMPT (human, recombinant, C-terminally His-tagged) (Homo sapiens, UniProt P43490). Put plainly: Time-Resolved Fluorescence Resonance Energy Transfer (TR-FRET) Binding Assay of NAMPT. The following applies: absence of substrates; 6.8 nM NAMPT, 200 nM probe, equilibrated 3 hours. On the procedure: Determination of the utility of compounds having Formula (I) as binders to and inhibitors of NAMPT was performed using Time-Resolved Fluorescence Resonance Energy Transfer (TR-FRET) binding assays.
Time-Resolved Fluorescence Resonance Energy Transfer (TR-FRET) Binding Assay of NAMPT
Test compounds were serially diluted (typically 11 half log dilutions) in neat DMSO to 50× final concentrations prior to dilution with assay buffer (50 mM HEPES (NaOH), pH 7.5, 100 mM NaCl, 10 mM MgCl2, 1 mM DTT, 1% Glycerol) to 3× and 6% DMSO. Six μL were transferred to 384-well low-volume plates (Owens Corning #3673). To this, 12 μL of a 1.5× solution containing enzyme, probe and antibody were added. Final concentrations in the 18 μL reactions were 1× assay buffer, 2% DMSO, 6.8 nM NAMPT (human, recombinant, C-terminally His-tagged), 200 nM probe (a potent nicotinamide-competitive inhibitor conjugated to Oregon Green 488) and 1 nM Tb-anti-His antibody (Invitrogen #PV5895). Reactions were equilibrated at room temperature for 3 hours prior to reading on an Envision multi-label plate reader (Perkin Elmer; Ex=337 nm, Em=520 and 495 nm). Time-resolved FRET ratios (Em520/Em495) were normalized to controls, plotted as a function of compound concentration and fit with the four-parameter logistic equation to determine IC50s.

Experiment [2] concerns the target NAMPT (Homo sapiens, UniProt P43490). Put plainly: Time-Resolved Fluorescence Resonance Energy Transfer (TR-FRET) Binding Assay of NAMPT with PRPP. The following applies: 200 μM PRPP and 2.5 mM ATP; 2 nM NAMPT, 2 nM probe, equilibrated 16 hours. The procedure: Time-Resolved Fluorescence Resonance Energy Transfer (TR-FRET) Binding Assay of NAMPT with PRPP
Compound handling and data processing were identical to the assay in the absence of substrates (above). Final concentrations were 1× assay buffer, 2% DMSO, 2 nM NAMPT, 2 nM probe, 1 nM Tb-anti-His antibody (Invitrogen #PV5895), 200 μM PRPP and 2.5 mM ATP. Reactions were equilibrated for 16 hours prior to measurement to allow for potential enzymatic modification of test compounds.

Sequence of NAMPT (human, recombinant, C-terminally His-tagged) (P43490 whole entry): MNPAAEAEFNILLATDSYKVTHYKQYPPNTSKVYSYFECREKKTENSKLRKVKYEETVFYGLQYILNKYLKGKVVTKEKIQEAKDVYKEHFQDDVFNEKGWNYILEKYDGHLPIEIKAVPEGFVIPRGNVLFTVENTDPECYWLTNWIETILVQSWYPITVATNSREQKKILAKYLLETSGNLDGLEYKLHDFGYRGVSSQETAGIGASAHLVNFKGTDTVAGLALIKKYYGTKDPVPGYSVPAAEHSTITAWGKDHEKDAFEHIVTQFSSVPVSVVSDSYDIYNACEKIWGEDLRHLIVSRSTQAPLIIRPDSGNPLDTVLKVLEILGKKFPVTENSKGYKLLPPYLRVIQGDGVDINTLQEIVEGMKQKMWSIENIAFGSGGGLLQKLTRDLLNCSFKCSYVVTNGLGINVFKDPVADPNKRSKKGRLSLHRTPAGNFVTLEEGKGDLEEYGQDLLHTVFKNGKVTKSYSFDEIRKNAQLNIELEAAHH
Sequence of NAMPT (P43490 whole entry): as above

As for `N#Cc1ccc(CN(C(=O)CC2CCOCC2)c2ncc(C(=O)NCCCn3ccnc3)s2)cc1` [Example 51, 2-[(4-cyanobenzyl)(tetrahydro-2H-pyran-4-ylacetyl)amino]-N-[3-(1H-imidazol-1-yl)propyl]-1,3-thiazole-5-carboxamide], the IC50 in experiment [1] is > 10000 nM; in experiment [2], 4.94 nM.
The corresponding values for `N#Cc1ccc(CCN(C(=O)CC2CCOC2)c2ncc(C(=O)NCCCn3ccnc3)s2)cc1` (centres unmarked) [Example 52, 2-{[2-(4-cyanophenyl)ethyl](tetrahydrofuran-3-ylacetyl)amino}-N-[3-(1H-imidazol-1-yl)propyl]-1,3-thiazole-5-carboxamide] are 1010 nM and 0.881 nM.
The corresponding values for `Cc1nccn1CCCNC(=O)c1cnc(N(Cc2ccc(F)cc2)C(=O)CC(C)C)s1` [Example 53, 2-[(4-fluorobenzyl)(3-methylbutanoyl)amino]-N-[3-(2-methyl-1H-imidazol-1-yl)propyl]-1,3-thiazole-5-carboxamide] are 2530 nM and 320 nM.
Consider `Cc1cn(CCCNC(=O)c2cnc(N(Cc3ccc(F)cc3)C(=O)CC(C)C)s2)cn1` [Example 54, 2-[(4-fluorobenzyl)(3-methylbutanoyl)amino]-N-[3-(4-methyl-1H-imidazol-1-yl)propyl]-1,3-thiazole-5-carboxamide], for which the IC50 in experiment [1] was 2110 nM; in experiment [2], 5.6 nM.
The corresponding values for `CC(C)CCN(Cc1ccccc1F)c1ncc(C(=O)NCCCn2ccnc2)s1` [Example 55, 2-[(2-fluorobenzyl)(3-methylbutyl)amino]-N-[3-(1H-imidazol-1-yl)propyl]-1,3-thiazole-5-carboxamide] are > 10000 nM and 3180 nM.
The corresponding values for `CC(C)CCN(Cc1cccc(F)c1)c1ncc(C(=O)NCCCn2ccnc2)s1` [Example 56, 2-[(3-fluorobenzyl)(3-methylbutyl)amino]-N-[3-(1H-imidazol-1-yl)propyl]-1,3-thiazole-5-carboxamide] are 6070 nM and 0.719 nM.
The corresponding values for `CC(C)CCN(Cc1ccccc1Cl)c1ncc(C(=O)NCCCn2ccnc2)s1` [Example 57, 2-[(2-chlorobenzyl)(3-methylbutyl)amino]-N-[3-(1H-imidazol-1-yl)propyl]-1,3-thiazole-5-carboxamide] are > 10000 nM and 1160 nM.
Regarding `CC(C)CCN(Cc1cccc(Cl)c1)c1ncc(C(=O)NCCCn2ccnc2)s1` [Example 58, 2-[(3-chlorobenzyl)(3-methylbutyl)amino]-N-[3-(1H-imidazol-1-yl)propyl]-1,3-thiazole-5-carboxamide], the 50% inhibitory concentration (IC50) in experiment [1] worked out at 1720 nM; in experiment [2] it was 807 nM.
Regarding `CC(C)CCN(Cc1ccc(Cl)cc1)c1ncc(C(=O)NCCCn2ccnc2)s1` [Example 59, 2-[(4-chlorobenzyl)(3-methylbutyl)amino]-N-[3-(1H-imidazol-1-yl)propyl]-1,3-thiazole-5-carboxamide], the half-inhibitory concentration (IC50) in experiment [1] is > 10000 nM; in experiment [2] it was 266 nM.
For the compound `CC(C)CCN(Cc1ccc(C#N)cc1)c1ncc(C(=O)NCCCn2ccnc2)s1` [Example 60, 2-[(4-cyanobenzyl)(3-methylbutyl)amino]-N-[3-(1H-imidazol-1-yl)propyl]-1,3-thiazole-5-carboxamide], the IC50 in experiment [1] was > 10000 nM; in experiment [2], 4.97 nM.
For `N#Cc1ccc(CN(C(=O)CC2CCOC2)c2ncc(C(=O)NCCCn3ccnc3)s2)cc1` (centres unmarked) [Example 61, 2-[(4-cyanobenzyl)(tetrahydrofuran-3-ylacetyl)amino]-N-[3-(1H-imidazol-1-yl)propyl]-1,3-thiazole-5-carboxamide], the IC50 in experiment [1] was 1900 nM; in experiment [2] it was 1.78 nM.
In the case of `COCCC(=O)N(Cc1ccc(C#N)cc1)c1ncc(C(=O)NCCCn2ccnc2)s1` [Example 62, 2-[(4-cyanobenzyl)(3-methoxypropanoyl)amino]-N-[3-(1H-imidazol-1-yl)propyl]-1,3-thiazole-5-carboxamide], the 50% inhibitory concentration (IC50) in experiment [1] was 810 nM; in experiment [2], 1.08 nM.
For the compound `CC(C)CCNC(=O)N(Cc1ccc(F)cc1)c1ncc(C(=O)NCCCn2ccnc2)s1` [Example 63, 2-{(4-fluorobenzyl)[(3-methylbutyl)carbamoyl]amino}-N-[3-(1H-imidazol-1-yl)propyl]-1,3-thiazole-5-carboxamide], the half-maximal inhibitory concentration (IC50) in experiment [1] was found to be 2250 nM; in experiment [2], 0.693 nM.
`CC(C)CNC(=O)N(Cc1ccc(F)cc1)c1ncc(C(=O)NCCCn2ccnc2)s1` [Example 64, 2-{(4-fluorobenzyl)[(2-methylpropyl)carbamoyl]amino}-N-[3-(1H-imidazol-1-yl)propyl]-1,3-thiazole-5-carboxamide]: the half-maximal inhibitory concentration (IC50) in experiment [1] stood at 1850 nM; in experiment [2], 2.97 nM.
For `NC(=O)C1CCCN(C(=O)N(Cc2ccc(F)cc2)c2ncc(C(=O)NCCCn3ccnc3)s2)C1` (centres unmarked) [Example 65, N^1-(4-fluorobenzyl)-N^1-(5-{[3-(1H-imidazol-1-yl)propyl]carbamoyl}-1,3-thiazol-2-yl)piperidine-1,3-dicarboxamide], the figures for the IC50 in experiment [1] and in experiment [2] were > 10000 nM and 5.37 nM, respectively.
Turning to `O=C(NCCCn1ccnc1)c1cnc(N(Cc2ccc(F)cc2)C(=O)N2CC(O)C2)s1` [Example 66, 2-{(4-fluorobenzyl)[(3-hydroxyazetidin-1-yl)carbonyl]amino}-N-[3-(1H-imidazol-1-yl)propyl]-1,3-thiazole-5-carboxamide], the results for the concentration for half-maximal inhibition (IC50) in experiment [1] and in experiment [2] were > 10000 nM and 2.42 nM, respectively.
Consider `O=C(NCCCn1ccnc1)c1cnc(N(Cc2ccc(F)cc2)C(=O)N2CCC3(C2)OCCO3)s1` [Example 67, N-(4-fluorobenzyl)-N-(5-{[3-(1H-imidazol-1-yl)propyl]carbamoyl}-1,3-thiazol-2-yl)-1,4-dioxa-7-azaspiro[4.4]nonane-7-carboxamide], for which the half-inhibitory concentration (IC50) in experiment [1] is > 10000 nM; in experiment [2] it was 3.53 nM.
In the case of `COC1CCN(C(=O)N(Cc2ccc(F)cc2)c2ncc(C(=O)NCCCn3ccnc3)s2)C1` (centres unmarked) [Example 68, 2-{(4-fluorobenzyl)[(3-methoxypyrrolidin-1-yl)carbonyl]amino}-N-[3-(1H-imidazol-1-yl)propyl]-1,3-thiazole-5-carboxamide], the IC50 in experiment [1] is > 10000 nM; in experiment [2], 4.68 nM.
For `COCCN(C)C(=O)N(Cc1ccc(F)cc1)c1ncc(C(=O)NCCCn2ccnc2)s1` [Example 69, 2-{(4-fluorobenzyl)[(2-methoxyethyl)(methyl)carbamoyl]amino}-N-[3-(1H-imidazol-1-yl)propyl]-1,3-thiazole-5-carboxamide], the IC50 in experiment [1] was > 10000 nM; in experiment [2], 3.98 nM.
As to `CC1CN(C(=O)N(Cc2ccc(F)cc2)c2ncc(C(=O)NCCCn3ccnc3)s2)CC(C)O1` (centres unmarked) [Example 70, N-(4-fluorobenzyl)-N-(5-{[3-(1H-imidazol-1-yl)propyl]carbamoyl}-1,3-thiazol-2-yl)-2,6-dimethylmorpholine-4-carboxamide], the IC50 in experiment [1] is > 10000 nM; in experiment [2] it was 5.08 nM.
For the compound `CCN(CCOC)C(=O)N(Cc1ccc(F)cc1)c1ncc(C(=O)NCCCn2ccnc2)s1` [Example 71, 2-{[ethyl(2-methoxyethyl)carbamoyl](4-fluorobenzyl)amino}-N-[3-(1H-imidazol-1-yl)propyl]-1,3-thiazole-5-carboxamide], the results for the IC50 in experiment [1] and in experiment [2] were 533 nM and 0.7 nM, respectively.
On to `CC1(C)CN(C(=O)N(Cc2ccc(F)cc2)c2ncc(C(=O)NCCCn3ccnc3)s2)CCO1` [Example 72, N-(4-fluorobenzyl)-N-(5-{[3-(1H-imidazol-1-yl)propyl]carbamoyl}-1,3-thiazol-2-yl)-2,2-dimethylmorpholine-4-carboxamide], for which the figures for the IC50 in experiment [1] and in experiment [2] were > 10000 nM and 3.99 nM, respectively.
On to `O=C(NCCCn1ccnc1)c1cnc(N(Cc2ccc(F)cc2)C(=O)N2CCCOCC2)s1` [Example 73, N-(4-fluorobenzyl)-N-(5-{[3-(1H-imidazol-1-yl)propyl]carbamoyl}-1,3-thiazol-2-yl)-1,4-oxazepane-4-carboxamide], for which the results for the IC50 in experiment [1] and in experiment [2] were > 10000 nM and 7.04 nM, respectively.
Consider `CC(C)CCN(C(=O)C(C)Oc1ccccc1)c1ncc(C(=O)NCCCn2ccnc2)s1` (centres unmarked) [Example 77, N-[3-(1H-imidazol-1-yl)propyl]-2-[(3-methylbutyl)(2-phenoxypropanoyl)amino]-1,3-thiazole-5-carboxamide], for which the concentration for half-maximal inhibition (IC50) in experiment [1] turned out to be 95.6 nM; in experiment [2] it was 0.774 nM.
For the compound `CCCOCCNC(=O)N(Cc1ccc(F)cc1)c1ncc(C(=O)NCCCn2ccnc2)s1` [Example 78, 2-{(4-fluorobenzyl)[(2-propoxyethyl)carbamoyl]amino}-N-[3-(1H-imidazol-1-yl)propyl]-1,3-thiazole-5-carboxamide], the IC50 turned out to be 2900 nM in experiment [1] and 0.969 nM in experiment [2].
